Reference: patent publication US10081634B2, “Heterocyclic compound” (Daewoong Pharmaceutical Co., Ltd., priority 2014, dated 2018)

Experiments:
[1] = molecular target: T1, PRS (prolyl-tRNA synthetase) (Homo sapiens, UniProt P07814); experiment: In vitro PRS enzyme activity inhibition experiment ([3H]proline, liquid scintillation); format: biochemical; conditions: purified PRS protein subcloned from EPRS cDNA; 37° C., 5 to 10 minutes; read-out: PRS IC50
T1 construct: the portion corresponding to PRS in cDNA of EPRS was subcloned; made in house
T1 sequence (P07814 1007-1512 limits assumed): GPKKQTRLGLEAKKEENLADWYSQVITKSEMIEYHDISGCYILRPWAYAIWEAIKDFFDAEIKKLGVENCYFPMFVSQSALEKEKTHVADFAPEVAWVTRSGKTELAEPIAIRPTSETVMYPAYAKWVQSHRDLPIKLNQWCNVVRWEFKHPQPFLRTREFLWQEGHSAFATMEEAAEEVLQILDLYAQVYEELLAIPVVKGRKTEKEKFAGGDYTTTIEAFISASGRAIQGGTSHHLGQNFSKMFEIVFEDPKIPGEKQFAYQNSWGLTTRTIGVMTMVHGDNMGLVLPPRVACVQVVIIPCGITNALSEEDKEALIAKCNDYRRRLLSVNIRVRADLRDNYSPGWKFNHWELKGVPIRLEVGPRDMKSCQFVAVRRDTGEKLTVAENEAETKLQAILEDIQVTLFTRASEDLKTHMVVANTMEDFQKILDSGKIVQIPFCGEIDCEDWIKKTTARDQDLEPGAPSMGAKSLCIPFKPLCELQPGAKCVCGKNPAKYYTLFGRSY
Summary of the method: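 Purified human PRS domain subcloned from EPRS cDNA, reacted at 37 °C for 5–10 min in 20 mM KPO4 pH 7.4, 6 mM MgAc, 5 mM ATP, tRNA, 0.5 mM DTT and [3H]proline. Compounds tested at 1 μM. Aminoacylation read on TCA-treated filter paper by liquid scintillation, giving % inhibition or IC50.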

NCI-H460 cells = experiment: Cancer cell growth inhibition experiment (MTT assay); format: cell-based; conditions: Homo sapiens; NCI-H460 lung cancer cell line; 48 hours treatment; MTT cell viability
Summary of the method: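 NCI-H460 lung cancer cells seeded at 6,000–12,000 cells/well in 5% FBS medium, settled 24 h, then exposed to compound at 0.01–100 μM for 48 h at 37°C, 5% CO2. MTT viability read-out; IC50 calculated and binned into A (≤5 μM), B (5–30 μM), C (≥30 μM).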

IC50 [1] | IC50 (NCI-H460 cells) | Compound
> 0.5 µM | ≥ 30 µM | O=C(C[C@H]1NCCC[C@@H]1O)Cn1c(CO)nc2cc(OC(F)(F)F)ccc21 [Example 60, 1-(2-(hydroxymethyl)-5-(trifluoromethoxy)-1H-benzo[d]imidazol-1-yl)-3-((2R,3S)-3-hydroxypiperidin-2-yl)propan-2-one]
< 0.1 µM | 5 to 30 µM | O=C(C[C@H]1NCCC[C@@H]1O)Cn1cnc2c(C(F)(F)F)c(Br)ccc21 [Example 18, 1-(5-bromo-4-(trifluoromethyl)-1H-benzo[d]imidazol-1-yl)-3-((2R,3S)-3-hydroxypiperidin-2-yl)propan-2-one]
